{"source": "paper PMC10700596", "about": "(Nature Communications, 2023)", "experiment": "in vivo", "type": "in vivo, mice", "conditions": "plasma, mice, plasma; for Final plasma concentration, individual sample: IP 10 mg/kg, single animal, D=1", "note": "“And” between values parts separate entries of the source, which are not always exact repeats. Equal entries are not always repeated. Where two headings read alike, the source gives them in different places.", "data": [{"smiles": "O=C([O-])C1CCC2(CC1)CC(Nc1ncnc3[nH]c4c(F)cccc4c13)C2.[Na+]", "note": "(centres unmarked) [Compound 77, [Na+].[O-]C(=O)C1CCC2(CC(C2)NC=3N=CN=C4NC=5C(F)=CC=CC5C34)CC1]", "values": [{"measurement": "concentration at 15 min", "setting": "male, CD-1, mouse, po, 30 mg/kg, PO 30 mg/kg, 15 min, read-out: Plasma concentration C (mean)", "value": 24.2, "unit": "µg/mL"}, {"measurement": "concentration at 30 min", "setting": "male, CD-1, mouse, po, 30 mg/kg, PO 30 mg/kg, 30 min, single animals, read-out: Plasma concentration, Final (individual mouse)", "value": 23, "unit": "µg/mL"}, {"measurement": "concentration at 30 min", "setting": "male, CD-1, mouse, po, 30 mg/kg, PO 30 mg/kg, 30 min, read-out: Plasma concentration C (mean)", "value": 21.7, "unit": "µg/mL"}, {"measurement": "concentration at 60 min", "setting": "male, CD-1, mouse, po, 30 mg/kg, PO 30 mg/kg, 60 min, single animals, read-out: Plasma concentration, Final (individual mouse)", "value": 24.4, "unit": "µg/mL"}, {"measurement": "concentration at 60 min", "setting": "male, CD-1, mouse, po, 30 mg/kg, PO 30 mg/kg, 60 min, read-out: Plasma concentration C (mean)", "value": 19.6, "unit": "µg/mL"}, {"measurement": "concentration at 120 min", "setting": "male, CD-1, mouse, po, 30 mg/kg, PO 30 mg/kg, 120 min, single animals, read-out: Plasma concentration, Final (individual mouse)", "value": 11.6, "unit": "µg/mL"}, {"measurement": "concentration at 120 min", "setting": "male, CD-1, mouse, po, 30 mg/kg, PO 30 mg/kg, 120 min, read-out: Plasma concentration C (mean)", "value": 9.14, "unit": "µg/mL"}, {"measurement": "concentration at 240 min", "setting": "male, CD-1, mouse, po, 30 mg/kg, PO 30 mg/kg, 240 min, single animals, read-out: Plasma concentration, Final (individual mouse)", "value": 5.21, "unit": "µg/mL"}, {"measurement": "concentration at 240 min", "setting": "male, CD-1, mouse, po, 30 mg/kg, PO 30 mg/kg, 240 min, read-out: Plasma concentration C (mean)", "value": 3.6, "unit": "µg/mL"}, {"measurement": "concentration at 360 min", "setting": "male, CD-1, mouse, po, 30 mg/kg, PO 30 mg/kg, 360 min, single animals, read-out: Plasma concentration, Final (individual mouse)", "value": 4.4, "unit": "µg/mL"}, {"measurement": "concentration at 360 min", "setting": "male, CD-1, mouse, po, 30 mg/kg, PO 30 mg/kg, 360 min, read-out: Plasma concentration C (mean)", "value": 4.51, "unit": "µg/mL"}, {"measurement": "concentration at 480 min", "setting": "male, CD-1, mouse, po, 30 mg/kg, PO 30 mg/kg, 480 min, read-out: Plasma concentration C (mean)", "value": 5.24, "unit": "µg/mL"}, {"measurement": "concentration at 1440 min", "setting": "male, CD-1, mouse, po, 30 mg/kg, PO 30 mg/kg, 1440 min, read-out: Plasma concentration C (mean)", "value": 0.187, "unit": "µg/mL"}, {"measurement": "AUC", "setting": "male, CD-1, mouse, po, 30 mg/kg p.o., read-out: AUC (converted)", "value": 108, "unit": "µg·h/mL"}, {"measurement": "Final plasma concentration, individual sample", "setting": "5 min, listed as Z5090949977, 10 mg/kg", "value": "2415 ng/mL and 2458 ng/mL"}, {"measurement": "Final plasma concentration, individual sample", "setting": "15 min, listed as Z5090949977, 10 mg/kg", "value": "7952 ng/mL and 6935 ng/mL"}, {"measurement": "Final plasma concentration, individual sample", "setting": "30 min, listed as Z5090949977, 10 mg/kg", "value": "4477 ng/mL and 7535 ng/mL"}, {"measurement": "Final plasma concentration, individual sample", "setting": "60 min, listed as Z5090949977, 10 mg/kg", "value": "9306 ng/mL and 9568 ng/mL"}, {"measurement": "Final plasma concentration, individual sample", "setting": "120 min, listed as Z5090949977, 10 mg/kg", "value": "9975 ng/mL and 654 ng/mL and 8498 ng/mL"}, {"measurement": "Final plasma concentration, individual sample", "setting": "240 min, listed as Z5090949977, 10 mg/kg", "value": "3566 ng/mL and 4977 ng/mL and 2222 ng/mL"}, {"measurement": "Final plasma concentration, individual sample", "setting": "360 min, listed as Z5090949977, 10 mg/kg", "value": "2567 ng/mL and 1708 ng/mL"}, {"measurement": "Final plasma concentration, individual sample", "setting": "480 min, listed as Z5090949977, 10 mg/kg", "value": "872 ng/mL and 500 ng/mL"}, {"measurement": "Final plasma concentration, individual sample", "setting": "1440 min, listed as Z5090949977, 10 mg/kg", "value": "13.6 ng/mL and 18.4 ng/mL"}, {"measurement": "Plasma concentration, Final (individual mouse)", "setting": "IV 10 mg/kg, 5 min, single animals, listed as Z5090949977, 10 mg/kg", "value": "28.26 µg/mL and 26.24 µg/mL"}, {"measurement": "Plasma concentration, Final (individual mouse)", "setting": "IV 10 mg/kg, 15 min, single animals, listed as Z5090949977, 10 mg/kg", "value": "16.14 µg/mL and 20.38 µg/mL"}, {"measurement": "Plasma concentration, Final (individual mouse)", "setting": "IV 10 mg/kg, 30 min, single animals, listed as Z5090949977, 10 mg/kg", "value": "14.23 µg/mL and 12.83 µg/mL"}, {"measurement": "Plasma concentration, Final (individual mouse)", "setting": "IV 10 mg/kg, 60 min, single animals, listed as Z5090949977, 10 mg/kg", "value": "8.422 µg/mL and 12.04 µg/mL"}, {"measurement": "Plasma concentration, Final (individual mouse)", "setting": "IV 10 mg/kg, 120 min, single animals, listed as Z5090949977, 10 mg/kg", "value": "4.081 µg/mL and 3.418 µg/mL"}, {"measurement": "Plasma concentration, Final (individual mouse)", "setting": "IV 10 mg/kg, 240 min, single animals, listed as Z5090949977, 10 mg/kg", "value": "2.055 µg/mL and 1.818 µg/mL"}, {"measurement": "Plasma concentration, Final (individual mouse)", "setting": "IV 10 mg/kg, 360 min, single animals, listed as Z5090949977, 10 mg/kg", "value": "2.041 µg/mL and 1.884 µg/mL"}, {"measurement": "Plasma concentration, Final (individual mouse)", "setting": "IV 10 mg/kg, 480 min, single animals, listed as Z5090949977, 10 mg/kg", "value": "0.829 µg/mL and 1.219 µg/mL and 1.675 µg/mL"}, {"measurement": "Plasma concentration, Final (individual mouse)", "setting": "IV 10 mg/kg, 1440 min, single animals, listed as Z5090949977, 10 mg/kg", "value": "0.0315 µg/mL and 0.0137 µg/mL and 0.0845 µg/mL"}, {"measurement": "Plasma concentration, Final (individual mouse)", "setting": "PO 30 mg/kg, 5 min, single animals, listed as Z5090949977, 30 mg/kg", "value": "2.091 µg/mL and 7.833 µg/mL and 3.112 µg/mL"}, {"measurement": "Plasma concentration, Final (individual mouse)", "setting": "PO 30 mg/kg, 15 min, single animals, listed as Z5090949977, 30 mg/kg", "value": "23.68 µg/mL and 31.27 µg/mL"}, {"measurement": "Plasma concentration, Final (individual mouse)", "setting": "PO 30 mg/kg, 30 min, single animals, listed as Z5090949977, 30 mg/kg", "value": "18.1 µg/mL and 24.02 µg/mL"}, {"measurement": "Plasma concentration, Final (individual mouse)", "setting": "PO 30 mg/kg, 60 min, single animals, listed as Z5090949977, 30 mg/kg", "value": "14.28 µg/mL and 20.06 µg/mL"}, {"measurement": "Plasma concentration, Final (individual mouse)", "setting": "PO 30 mg/kg, 120 min, single animals, listed as Z5090949977, 30 mg/kg", "value": "8.277 µg/mL and 7.588 µg/mL"}, {"measurement": "Plasma concentration, Final (individual mouse)", "setting": "PO 30 mg/kg, 240 min, single animals, listed as Z5090949977, 30 mg/kg", "value": "2.686 µg/mL and 2.897 µg/mL"}, {"measurement": "Plasma concentration, Final (individual mouse)", "setting": "PO 30 mg/kg, 360 min, single animals, listed as Z5090949977, 30 mg/kg", "value": "3.917 µg/mL and 5.212 µg/mL"}, {"measurement": "Plasma concentration, Final (individual mouse)", "setting": "PO 30 mg/kg, 480 min, single animals, listed as Z5090949977, 30 mg/kg", "value": "8.465 µg/mL and 5.117 µg/mL and 2.129 µg/mL"}, {"measurement": "Plasma concentration, Final (individual mouse)", "setting": "PO 30 mg/kg, 1440 min, single animals, listed as Z5090949977, 30 mg/kg", "value": "0.154 µg/mL and 0.0789 µg/mL and 0.329 µg/mL"}]}]}
